These results are taken from patent publication US20250236596A1, “HYDROXYLAMINE-BASED EGFR INHIBITORS FOR TREATMENT OF CANCER WITH BRAIN METASTASES” (University of Georgia Research Foundation, Inc., priority 2022, published 2025).

Data set [1] is described as follows: Metabolic stability in hepatocytes. It counts as in vitro ADME. Particulars: human and rat; result in words. As to the method: Assessment of the compounds metabolic stability in incubations containing liver microsomes and hepatocytes of human and rat using the compound depletion approach was performed by Pharmaron Inc. Compound 15 underwent additional stability evaluation in monkey and dog hepatocytes. Microsome stability was assessed in duplicate (n=2) in the presence and absence of NADPH with liver microsomes (0.5 mg/mL) from human (BD Gentest) and SD rat (BD Gentest). Compounds were incubated in liver microsomes at 1 μM and samples (30 μL) were taken at 0.5, 15, 30, 45 and 60 min time points for analysis by LC-MS/MS. Hepatocyte stability was assessed in duplicate (n=2) at a working cell density of 0.5×10^6 cells/mL with hepatocytes from human (BioIVT), SD rat (BioIVT), cynomolgous monkey (RILD) or beagle dog (BioIVT). Compounds were incubated in hepatocytes at 1 μM and samples (25 μL) were taken at 0.5, 15, 30, 60, 90 and 120 min time points for analysis by LC-MS/MS. The in vitro half-life and intrinsic clearances were determined as previously described.^19
In vitro half-life (in vitro t1/2) was determined from the slope value in: in vitro t1/2=−(0.693/k).
Where, k, was determined by linear regression of the natural logarithm of the remaining percentage of the parent drug vs incubation time curve.

Another data set concerns the target T1, hERG channel (Homo sapiens, UniProt Q12809).
T1 construct: assay at Pharmaron Inc; host or cells: HEK293
The data set can be described thus: hERG channel inhibition, manual patch clamp. In kind it is cell-based. On the procedure:
The potential inhibitory effect of compounds on the hERG channel was assessed by Pharmaron Inc. using the manual patch clamp system as previously described.^20 The HEK293 cell line (Invitrogen) stably transfected with the hERG gene was employed. Compounds were tested at 5 concentrations (0.37, 1.11, 3.33, 10 and 30 μM) and run in triplicate (n=3). IC50 values were determined by plotting the % inhibition against the concentration of compounds using GraphPad Prism from the non-linear regression equation fitted with a sigmoidal dose-response curve, and the IC50 values are presented as the mean±SEM.
Background: The hERG channel carries a current that helps repolarise heart muscle cells.

Data set [2] in a line: Oral CNS pharmacokinetics in SD rats. The following applies: male, rat, brain and plasma, single oral dose 20 mg/kg, read-out: Kp,uu (unbound brain-to-unbound plasma partitioning coefficient) (AUCinf). It counts as in vivo. As to the method:
Animal experiments were performed at Pharmaron Inc. and animal use was approved by Pharmaron's Institutional Animal Care and Use Committee (IACUC) in Pharmaron (Pharmaron IACUC, Protocol #PK-M-07182022, #PK-R-06012022 and #ON-CELL-XEN-06012022) following the guidance of AAALAC. Six- to eight-week-old male SD rats (approximately 200-300 g) obtained from Si Bei Fu Laboratory Animal Technology Co., six- to eight-week-old male CD1 mice (approximately 20-30 g) obtained from Si Bei Fu Laboratory Animal Technology Co., and six- to eight-week-old female BALB/c nude mice (approximately 20-30 g) obtained from Si Bei Fu Laboratory Animal Technology Co., were used in the pharmacokinetic studies. Six- to eight-week-old female BALB/c nude mice (approximately 18-22 g) obtained from Beijing Anikeeper Biotech Co., Ltd were used in the intracranial PDX study. […]
Oral CNS pharmacokinetic assessment of 15 was done by oral gavage (formulation: 1% methylcellulose) followed by blood and brain sampling at 7 time points (0.25, 0.5, 1, 2, 4, 8, 24 h post dose) with n=3 animals per time point (n=21 total). […] Concentrations of 15 in the plasma and brain samples were determined using LC-MS/MS and WinNonlin 8.3 (Phoenix™) was used for pharmacokinetic calculations. […]

T1 sequence (Q12809 whole entry): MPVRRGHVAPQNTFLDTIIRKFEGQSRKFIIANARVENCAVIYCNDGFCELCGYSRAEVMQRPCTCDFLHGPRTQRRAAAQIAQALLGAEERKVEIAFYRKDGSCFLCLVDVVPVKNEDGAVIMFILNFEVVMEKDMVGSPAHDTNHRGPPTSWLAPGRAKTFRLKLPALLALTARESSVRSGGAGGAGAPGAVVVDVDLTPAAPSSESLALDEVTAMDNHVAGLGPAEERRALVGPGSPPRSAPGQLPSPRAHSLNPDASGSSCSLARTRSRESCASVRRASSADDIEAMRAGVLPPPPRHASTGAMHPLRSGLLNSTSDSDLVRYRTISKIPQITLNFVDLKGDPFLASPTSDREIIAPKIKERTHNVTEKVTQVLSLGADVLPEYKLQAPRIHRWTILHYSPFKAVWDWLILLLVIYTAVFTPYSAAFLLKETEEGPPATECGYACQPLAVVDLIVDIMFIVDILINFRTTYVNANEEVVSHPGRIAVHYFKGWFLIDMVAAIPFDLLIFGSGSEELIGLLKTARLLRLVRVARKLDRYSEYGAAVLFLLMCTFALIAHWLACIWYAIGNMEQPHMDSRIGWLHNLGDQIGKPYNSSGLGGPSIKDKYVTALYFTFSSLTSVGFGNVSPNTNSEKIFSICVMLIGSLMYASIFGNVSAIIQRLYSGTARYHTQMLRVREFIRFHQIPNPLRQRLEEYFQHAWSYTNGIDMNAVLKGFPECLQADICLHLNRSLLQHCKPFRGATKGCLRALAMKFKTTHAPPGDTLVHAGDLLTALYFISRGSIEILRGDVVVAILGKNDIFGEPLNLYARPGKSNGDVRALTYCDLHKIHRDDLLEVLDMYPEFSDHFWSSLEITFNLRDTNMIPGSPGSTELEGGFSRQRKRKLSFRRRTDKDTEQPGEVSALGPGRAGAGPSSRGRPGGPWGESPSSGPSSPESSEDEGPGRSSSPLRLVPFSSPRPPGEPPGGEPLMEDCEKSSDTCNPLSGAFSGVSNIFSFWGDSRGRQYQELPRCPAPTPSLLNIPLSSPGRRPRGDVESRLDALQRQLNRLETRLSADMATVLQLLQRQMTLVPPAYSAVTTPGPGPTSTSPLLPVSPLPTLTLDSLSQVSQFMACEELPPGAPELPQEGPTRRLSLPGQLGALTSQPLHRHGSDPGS

Consider `COc1cc2ncnc(Nc3cccc(Cl)c3F)c2cc1OCCON1CCN(C)CC1` [Compound 15, N-(3-chloro-2-fluorophenyl)-7-methoxy-6-(2-((4-methylpiperazin-1-yl)oxy)ethoxy)quinazolin-4-amine], for which the stability in hepatocytes entry in data set [1] is recorded as “good stability”. The IC50 – broadly, the concentration that inhibits the measured activity by half – against hERG channel (HEK293 cells transfected with hERG, patch clamp) is 6.48 µM. Moreover, on hERG channel (at 10 μM), the hERG maximal inhibition result is “approximately 60%”. The Kp,uu (unbound brain-to-unbound plasma partition coefficient) in data set [2] was found to be 0.33.
